Laboratory results published in patent US20150094321A1, “COMBINATION” (GlaxoSmithKline LLC, priority 2009, published 2015).
pIC50: −log10 of the molar value.

Columns and labels:
Assay in all cases: Cell line proliferation study
Format in all cases: cell-based, human
[1] = test system: SKMES1; settings: SKMES1, lung; for pIC50: Homo sapiens, SK-MES-1, 72 hours, read-out: gIC50
Description: (§1) In a separate study, combination drug tests with Compounds A and B were conducted using a panel of cell lines from human colon cancers (n=26), lung cancers (n=15) and pancreatic cancers (n=6). Cell lines were obtained from commercial vendors (ATCC and DSMZ). Cell lines were grown in RPMI-1640 supplemented with 2 mM glutamine, 1 mM sodium pyruvate and 10% fetal bovine serum (except for Capan-1 and HuP-T4 which were grown with 20% fetal bovine serum) and maintained at 37° C. and 5% CO2 in a humid incubator. Assays were performed in 384 well microtiter plates with optimum seeding densities for each cell line.
(§2) The test compounds were prepared as 10 mM stocks in 100% DMSO. Further dilutions of the compounds were made in DMSO. Compound A was diluted horizontally in a separate 96 well microtiter plate in rows D-G using a 3-fold dilution series for 10 dilution points. Compound B was similarly diluted horizontally in a 96 well microtiter plate in rows B-E using a 3-fold dilution series for 10 dilution points.
(§3) The two compounds were combined using equal volumes from each drug plate into cell culture media. […] Both Compound A and Compound B were individually titrated in rows B and C (for Compound B) and rows F and G (for Compound A) of the merged drug plate.
(§4) A 1:10 dilution of the drugs was performed in cell culture media prior to addition to the cells.
(§5) The final concentration range for the test compounds was 250 to 0.013 nM for Compound A and 1000 to […] for Compound B. The positive control consisted of culture media with DMSO at 0.1% and cells. The negative control consisted of culture media with DMSO at 0.1%. The cell lines were incubated at 37° C., 5% CO2 in humid air for 72 hours. Cell proliferation was measured using the CellTiter Glo (Promega) reagent according to the manufacturer's protocol. The plates are treated with CellTiter Glo solution and are analyzed for RLU (relative light units) using a Molecular Devices SpectraMax M5 plate reader.
(§6) The percent intensity values were used in model 205 of XLfit (IDBS, Inc.) in Microsoft Excel to calculate gIC50 values using a 4 parameter logistical fit. The midpoint of the growth window (the gIC50) falls half way between the number of cells at the time of compound addition (T=0) and the growth of control cells treated with DMSO at 72 hrs. The number of cells at time zero (T0) is divided from the intensity value at the bottom of the response curve (Ymin) to generate a measure for cell death (Ymin/T0). A value below 1 for Ymin/T0 indicates stronger potency to induce cell death with the treatment when compared to higher values. […]

[2] = test system: BxPC3; settings: BxPC3, pancreas; for pIC50: Homo sapiens, BXPC-3, 72 hours, read-out: gIC50
Description: as §1, §2, §3, §4, §5, §6

[3] = test system: NCIH23; settings: NCIH23, lung; for pIC50: Homo sapiens, NCI-H23, 72 hours, read-out: gIC50
Description: as §1, §2, §3, §4, §5, §6

[4] = test system: HCC2998; settings: HCC2998, colon; for pIC50: Homo sapiens, HCC 2998, 72 hours, read-out: gIC50
Description: as §1, §2, §3, §4, §5, §6

[5] = test system: NCIH2170; settings: NCIH2170, lung; for pIC50: Homo sapiens, NCI-H2170, 72 hours, read-out: gIC50
Description: as §1, §2, §3, §4, §5, §6

[6] = test system: A549; settings: A549, lung; for pIC50: Homo sapiens, 72 hours, read-out: gIC50
Description: as §1, §2, §3, §4, §5, §6

[7] = test system: RKO; settings: colon; for pIC50: Homo sapiens, 72 hours, read-out: gIC50
Description: as §1, §2, §3, §4, §5, §6

[8] = test system: SW1116; settings: SW1116, colon; for pIC50: Homo sapiens, SW 1116, 72 hours, read-out: gIC50
Description: as §1, §2, §3, §4, §5, §6

[9] = test system: SW1417; settings: SW1417, colon; for pIC50: Homo sapiens, 72 hours, read-out: gIC50
Description: as §1, §2, §3, §4, §5, §6

[10] = test system: DLD1; settings: DLD1, colon; for pIC50: Homo sapiens, DLD-1, 72 hours, read-out: gIC50
Description: as §1, §2, §3, §4, §5, §6

[11] = test system: NCIH358; settings: NCIH358, lung; for pIC50: Homo sapiens, NCI-H358, 72 hours, read-out: gIC50
Description: as §1, §2, §3, §4, §5, §6

[12] = test system: Colo201; settings: Colo201, colon; for pIC50: Homo sapiens, COLO 201, 72 hours, read-out: gIC50
Description: as §1, §2, §3, §4, §5, §6

[13] = test system: NCIH2228; settings: NCIH2228, lung; for pIC50: Homo sapiens, NCI-H2228, 72 hours, read-out: gIC50
Description: as §1, §2, §3, §4, §5, §6

[14] = test system: Colo320HSR; settings: colon; for pIC50: Homo sapiens, COLO-320-HSR, 72 hours, read-out: gIC50
Description: as §1, §2, §3, §4, §5, §6

[15] = test system: HCT-15; settings: HC115, colon; for pIC50: Homo sapiens, HCT-15, 72 hours, read-out: gIC50
Description: as §1, §2, §3, §4, §5, §6

[16] = test system: NCIH460; settings: NCIH460, lung; for pIC50: Homo sapiens, NCI-H460, 72 hours, read-out: gIC50
Description: as §1, §2, §3, §4, §5, §6

[17] = test system: Colo320DM; settings: colon; for pIC50: Homo sapiens, COLO 320DM, 72 hours, read-out: gIC50
Description: as §1, §2, §3, §4, §5, §6

[18] = test system: NCIH747; settings: NCIH747, colon; for pIC50: Homo sapiens, NCI-H747, 72 hours, read-out: gIC50
Description: as §1, §2, §3, §4, §5, §6

[19] = test system: Colo205; settings: Colo205, colon; for pIC50: Homo sapiens, COLO 205, 72 hours, read-out: gIC50
Description: as §1, §2, §3, §4, §5, §6

[20] = test system: NCIH520; settings: NCIH520, lung; for pIC50: Homo sapiens, NCI-H520, 72 hours, read-out: gIC50
Description: as §1, §2, §3, §4, §5, §6

Structure (SMILES)	pIC50 [1]	Ymin/T0 [1]	Ymin/T0 [2]	pIC50 [2]	pIC50 [3]	Ymin/T0 [3]	Ymin/T0 [4]	pIC50 [4]	pIC50 [5]	Ymin/T0 [5]	Ymin/T0 [6]	pIC50 [6]	pIC50 [7]	Ymin/T0 [7]	pIC50 [8]	Ymin/T0 [8]	pIC50 [9]	Ymin/T0 [9]	Ymin/T0 [10]	pIC50 [10]	also measured
CC(=O)Nc1cccc(-n2c(=O)n(C3CC3)c(=O)c3c(Nc4ccc(I)cc4F)n(C)c(=O)c(C)c32)c1 [Compound A, N-{3-[3-cyclopropyl-5-(2-fluoro-4-iodo-phenylamino)-6,8-dimethyl-2,4,7-trioxo-3,4,6,7-tetrahydro-2H-pyrido[4,3-d]pyrimidin-1-yl]phenyl}acetamide]	7.09	19.5	20.86	< 6.60	< 6.60	36.3	2.13	7.78	< 6.60	59.5	15.9	7.89	7.11	24.44	7.84	2.28	8.54	16.19	397	6.47	pIC50 [11]: 7.76; Ymin/T0 [11]: 10.7; Ymin/T0 [12]: −8.96; pIC50 [12]: 8.40; pIC50 [13]: < 6.60; Ymin/T0 [13]: 39.7; pIC50 [14]: < 6.60; Ymin/T0 [14]: 78.4; Ymin/T0 [15]: 57.0; pIC50 [15]: < 6.60; pIC50 [16]: 7.20; Ymin/T0 [16]: 39.1; pIC50 [17]: < 6.60; Ymin/T0 [17]: 81.01; pIC50 [18]: 8.27; Ymin/T0 [18]: 5.55; Ymin/T0 [19]: −1.30; pIC50 [19]: 9.11; pIC50 [20]: < 6.60; Ymin/T0 [20]: 70.2
Cn1ncc(Cl)c1-c1cc(C(=O)N[C@H](CN)Cc2ccc(F)c(F)c2)oc1Cl [Compound B, N-{(1S)-2-amino-1-[(3,4-difluorophenyl)methyl]ethyl}-5-chloro-4-(4-chloro-1-methyl-1H-pyrazol-5-yl)-2-furancarboxamide]	< 6.00	49.6	71.87	< 6.00	< 6.00	41.5	−4.90	6.53	< 6.00	18.2	32.7	< 6.00	< 6.00	17.13	< 6.00	37.32	< 6.00	3.63	29.0	< 6.00	pIC50 [11]: < 6.00; Ymin/T0 [11]: 37.2; Ymin/T0 [12]: 80.16; pIC50 [12]: < 6.00; pIC50 [13]: < 6.00; Ymin/T0 [13]: 37.1; pIC50 [14]: < 6.00; Ymin/T0 [14]: 28.6; Ymin/T0 [15]: 30.4; pIC50 [15]: < 6.00; pIC50 [16]: 6.18; Ymin/T0 [16]: 20.8; pIC50 [17]: < 6.00; Ymin/T0 [17]: 9.81; pIC50 [18]: < 6.00; Ymin/T0 [18]: 23.79; Ymin/T0 [19]: 14.87; pIC50 [19]: < 6.00; pIC50 [20]: 6.25; Ymin/T0 [20]: 15.0
